Conditions: dynamic light scattering

COC(C)(C)C [2-methoxy-2-methylpropane]
thermal diffusivity [m2/s]
Conditions | Gas | Liquid
303.15 K, 101.33 kPa | – | 6.4e-08
303.15 K, 1500 kPa | – | 6.66e-08
303.15 K, 2500 kPa | – | 6.7e-08
303.15 K, 4000 kPa | – | 6.75e-08
303.15 K, 5500 kPa | – | 6.79e-08
303.15 K, 7000 kPa | – | 6.81e-08
303.15 K, 8500 kPa | – | 6.83e-08
303.15 K, 10000 kPa | – | 6.85e-08
313.15 K, 101.33 kPa | – | 6.17e-08
318.15 K, 1500 kPa | – | 6.29e-08
318.15 K, 2500 kPa | – | 6.32e-08
318.15 K, 4000 kPa | – | 6.37e-08
318.15 K, 5500 kPa | – | 6.4e-08
318.15 K, 7000 kPa | – | 6.44e-08
318.15 K, 8500 kPa | – | 6.47e-08
318.15 K, 10000 kPa | – | 6.49e-08
323.15 K, 101.33 kPa | – | 5.87e-08
333.15 K, 101.33 kPa | – | 5.7e-08
333.15 K, 1500 kPa | – | 5.94e-08
333.15 K, 2500 kPa | – | 5.97e-08
333.15 K, 4000 kPa | – | 6e-08
333.15 K, 5500 kPa | – | 6.05e-08
333.15 K, 7000 kPa | – | 6.09e-08
333.15 K, 8500 kPa | – | 6.15e-08
333.15 K, 10000 kPa | – | 6.21e-08
343.15 K, 101.33 kPa | – | 5.42e-08
348.15 K, 1500 kPa | – | 5.62e-08
348.15 K, 2500 kPa | – | 5.63e-08
348.15 K, 4000 kPa | – | 5.68e-08
348.15 K, 5500 kPa | – | 5.72e-08
348.15 K, 7000 kPa | – | 5.78e-08
348.15 K, 8500 kPa | – | 5.85e-08
348.15 K, 10000 kPa | – | 5.92e-08
353.15 K, 101.33 kPa | – | 5.26e-08
363.15 K, 101.33 kPa | – | 5.05e-08
363.15 K, 1500 kPa | – | 5.33e-08
363.15 K, 2500 kPa | – | 5.34e-08
363.15 K, 4000 kPa | – | 5.38e-08
363.15 K, 5500 kPa | – | 5.43e-08
363.15 K, 7000 kPa | – | 5.5e-08
363.15 K, 8500 kPa | – | 5.57e-08
363.15 K, 10000 kPa | – | 5.68e-08
373.15 K, 101.33 kPa | – | 4.83e-08
378.15 K, 1500 kPa | – | 5.06e-08
378.15 K, 2500 kPa | – | 5.07e-08
378.15 K, 4000 kPa | – | 5.1e-08
378.15 K, 5500 kPa | – | 5.15e-08
378.15 K, 7000 kPa | – | 5.23e-08
378.15 K, 8500 kPa | – | 5.32e-08
378.15 K, 10000 kPa | – | 5.44e-08
383.15 K, 101.33 kPa | – | 4.72e-08
393.15 K, 101.33 kPa | – | 4.64e-08
393.15 K, 1500 kPa | – | 4.83e-08
393.15 K, 2500 kPa | – | 4.83e-08
393.15 K, 4000 kPa | – | 4.86e-08
393.15 K, 5500 kPa | – | 4.92e-08
393.15 K, 7000 kPa | – | 4.99e-08
393.15 K, 8500 kPa | – | 5.09e-08
393.15 K, 10000 kPa | – | 5.21e-08
403.15 K, 101.33 kPa | – | 4.55e-08
403.15 K, 1500 kPa | – | 4.68e-08
403.15 K, 2500 kPa | – | 4.69e-08
403.15 K, 4000 kPa | – | 4.71e-08
403.15 K, 5500 kPa | – | 4.77e-08
403.15 K, 7000 kPa | – | 4.85e-08
403.15 K, 8500 kPa | – | 4.95e-08
403.15 K, 10000 kPa | – | 5.08e-08
413.1 K, 1500 kPa | – | 4.54e-08
413.1 K, 2500 kPa | – | 4.55e-08
413.1 K, 4000 kPa | – | 4.58e-08
413.1 K, 5500 kPa | – | 4.64e-08
413.1 K, 7000 kPa | – | 4.72e-08
413.1 K, 8500 kPa | – | 4.82e-08
413.1 K, 10000 kPa | – | 4.95e-08
413.15 K, 101.33 kPa | – | 4.48e-08
423.15 K, 101.33 kPa | – | 4.38e-08
423.15 K, 1500 kPa | – | 4.42e-08
423.15 K, 2500 kPa | – | 4.43e-08
423.15 K, 4000 kPa | – | 4.46e-08
423.15 K, 5500 kPa | – | 4.51e-08
423.15 K, 7000 kPa | – | 4.59e-08
423.15 K, 8500 kPa | – | 4.7e-08
423.15 K, 10000 kPa | – | 4.83e-08
433.15 K, 101.33 kPa | – | 4.31e-08
433.15 K, 1500 kPa | – | 4.32e-08
433.15 K, 2500 kPa | – | 4.32e-08
433.15 K, 4000 kPa | – | 4.36e-08
433.15 K, 5500 kPa | – | 4.41e-08
433.15 K, 7000 kPa | – | 4.49e-08
433.15 K, 8500 kPa | – | 4.59e-08
433.15 K, 10000 kPa | – | 4.72e-08
443.15 K, 101.33 kPa | – | 4.18e-08
443.15 K, 2500 kPa | – | 4.23e-08
443.15 K, 4000 kPa | – | 4.26e-08
443.15 K, 5500 kPa | – | 4.31e-08
443.15 K, 7000 kPa | – | 4.39e-08
443.15 K, 8500 kPa | – | 4.49e-08
443.15 K, 10000 kPa | – | 4.61e-08
453.15 K, 101.33 kPa | 2.36e-07 | 4.05e-08
453.15 K, 2500 kPa | – | 4.15e-08
453.15 K, 4000 kPa | – | 4.18e-08
453.15 K, 5500 kPa | – | 4.23e-08
453.15 K, 7000 kPa | – | 4.3e-08
453.15 K, 8500 kPa | – | 4.4e-08
453.15 K, 10000 kPa | – | 4.51e-08
455.15 K, 101.33 kPa | 2.06e-07 | –
457.15 K, 101.33 kPa | 1.87e-07 | –
458.15 K, 101.33 kPa | – | 3.91e-08
458.15 K, 2500 kPa | – | 4.11e-08
458.15 K, 4000 kPa | – | 4.15e-08
458.15 K, 5500 kPa | – | 4.2e-08
458.15 K, 7000 kPa | – | 4.27e-08
458.15 K, 8500 kPa | – | 4.36e-08
458.15 K, 10000 kPa | – | 4.47e-08
459.15 K, 101.33 kPa | 1.72e-07 | –
461.15 K, 101.33 kPa | 1.62e-07 | –
463.15 K, 101.33 kPa | 1.54e-07 | 3.86e-08
463.15 K, 2500 kPa | – | 4.08e-08
463.15 K, 4000 kPa | – | 4.11e-08
463.15 K, 5500 kPa | – | 4.16e-08
463.15 K, 7000 kPa | – | 4.23e-08
463.15 K, 8500 kPa | – | 4.32e-08
463.15 K, 10000 kPa | – | 4.43e-08
465.15 K, 101.33 kPa | 1.47e-07 | –
467.15 K, 101.33 kPa | 1.38e-07 | –
468.15 K, 101.33 kPa | – | 3.66e-08
468.15 K, 2500 kPa | – | 4.05e-08
468.15 K, 4000 kPa | – | 4.09e-08
468.15 K, 5500 kPa | – | 4.14e-08
468.15 K, 7000 kPa | – | 4.2e-08
468.15 K, 8500 kPa | – | 4.28e-08
468.15 K, 10000 kPa | – | 4.38e-08
469.15 K, 101.33 kPa | 1.31e-07 | –
471.15 K, 101.33 kPa | 1.22e-07 | –
473.15 K, 101.33 kPa | 1.14e-07 | 3.55e-08
473.15 K, 2500 kPa | – | 4.02e-08
473.15 K, 4000 kPa | – | 4.06e-08
473.15 K, 5500 kPa | – | 4.11e-08
473.15 K, 7000 kPa | – | 4.18e-08
473.15 K, 8500 kPa | – | 4.25e-08
473.15 K, 10000 kPa | – | 4.34e-08
475.15 K, 101.33 kPa | 1.05e-07 | 3.47e-08
477.15 K, 101.33 kPa | 9.7e-08 | 3.36e-08
479.15 K, 101.33 kPa | 8.8e-08 | 3.36e-08
481.15 K, 101.33 kPa | 7.8e-08 | 3.3e-08
483.15 K, 101.33 kPa | 7e-08 | 3.22e-08
483.15 K, 4000 kPa | – | 4.02e-08
483.15 K, 5500 kPa | – | 4.07e-08
483.15 K, 7000 kPa | – | 4.12e-08
483.15 K, 8500 kPa | – | 4.19e-08
483.15 K, 10000 kPa | – | 4.27e-08
485.15 K, 101.33 kPa | 6.2e-08 | 3.07e-08
487.15 K, 101.33 kPa | 5.6e-08 | 3.02e-08
489.15 K, 101.33 kPa | 5e-08 | 2.95e-08
491.15 K, 101.33 kPa | 4.3e-08 | 2.81e-08
493.15 K, 101.33 kPa | 3.1e-08 | 2.73e-08
493.15 K, 4000 kPa | – | 3.99e-08
493.15 K, 5500 kPa | – | 4.03e-08
493.15 K, 7000 kPa | – | 4.08e-08
493.15 K, 8500 kPa | – | 4.14e-08
493.15 K, 10000 kPa | – | 4.21e-08

From the NIST ThermoML archive (doi:10.1021/je5008394)
